# Measured values reported in patent US9156856B2, “Apoptosis-inducing agents for the treatment of cancer and immune and autoimmune diseases” (AbbVie Inc., priority 2009, dated 2015).
# Molecular target: Bcl-2 (Homo sapiens (Human), UniProt P10415)
# Assay: Time Resolved-Fluorescence Resonance Energy Transfer (TR-FRET) Bcl-2 binding assay with F-Bak peptide probe
# Conditions: GST-Bcl-2 1 nM, F-Bak peptide probe 100 nM, Tb-anti-GST antibody 1 nM; Ki by Wang's equation
# Experimental: Determination of the utility of compounds having Formula (I) as binders to and inhibitors of anti-apoptotic Bcl-2 proteins was performed using the Time Resolved-Fluorescence Resonance Energy Transfer (TR-FRET) Assay. Tb-anti-GST antibody was purchased from Invitrogen (Catalog No. PV4216).
# Representative compounds were serially diluted in dimethyl sulfoxide (DMSO) starting at 50 μM (2× starting concentration; 10% DMSO) and 10 μL were transferred into a 384-well plate. The samples are then mixed on a shaker for 1 minute and incubated for an additional 3 hours at room temperature. For each assay, the probe/antibody and protein/probe/antibody were included on each assay plate as negative and positive controls, respectively. Fluorescence was measured on the ENVISION plate reader (Perkin Elmer) using a 340/35 nm excitation filter and 520/525 (F-Bak peptide) and 495/510 nm (Tb-labeled […] antibody) emission filters Inhibition constants (Ki) are shown in TABLE 2 below and were determined using Wang's equation (Wang Z.-X. An Exact Mathematical Expression For Describing Competitive Binding Of Two Different Ligands To A Protein Molecule. FEBS Lett. 1995, 360:111-4).
# The inhibition constant (Ki) is the dissociation constant of an enzyme-inhibitor complex or a protein/small molecule complex, wherein the small molecule is inhibiting binding of one protein to another protein. So a large K, value indicates a low binding affinity and a small Ki value indicates a high binding affinity.
# The compounds are therefore expected to have utility in treatment of diseases during which anti-apoptotic Bcl-2 protein is expressed.
# Chain of Bcl-2 (P10415 whole entry): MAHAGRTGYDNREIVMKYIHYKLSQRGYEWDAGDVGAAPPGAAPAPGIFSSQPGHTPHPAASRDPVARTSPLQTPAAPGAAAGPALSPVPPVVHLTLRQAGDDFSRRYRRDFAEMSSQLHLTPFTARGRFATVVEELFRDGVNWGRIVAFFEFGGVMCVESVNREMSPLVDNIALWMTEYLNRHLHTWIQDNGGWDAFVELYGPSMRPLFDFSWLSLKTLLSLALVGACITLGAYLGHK
row,Structure (SMILES),Ki [nM]
1,"CC(=O)Nc1nc(C)c(S(=O)(=O)NC(=O)c2ccc(N3CCN(Cc4ccccc4-c4ccc(Cl)cc4)CC3)cc2)s1 [Example 11, N-{[2-(acetylamino)-4-methyl-1,3-thiazol-5-yl]sulfonyl}-4-{4-[(4′-chloro-1,1′-biphenyl-2-yl)methyl]piperazin-1-yl}benzamide]",177
2,"O=C(NCc1ccc(S(=O)(=O)NC(=O)c2ccc(N3CCN(Cc4ccccc4-c4ccc(Cl)cc4)CC3)cc2)s1)c1ccccc1 [Example 12, N-({5-[(benzoylamino)methyl]thien-2-yl}sulfonyl)-4-{4-[(4′-chloro-1,1′-biphenyl-2-yl)methyl]piperazin-1-yl}benzamide]",393
3,"O=C(NS(=O)(=O)c1c(Cl)nc2sccn12)c1ccc(N2CCN(Cc3ccccc3-c3ccc(Cl)cc3)CC2)cc1 [Example 13, 4-{4-[(4′-chloro-1,1′-biphenyl-2-yl)methyl]piperazin-1-yl}-N-[(6-chloroimidazo[2,1-b][1,3]thiazol-5-yl)sulfonyl]benzamide]",388
4,"O=C(NS(=O)(=O)N1CCOCC1)c1ccc(N2CCN(Cc3ccccc3-c3ccc(Cl)cc3)CC2)cc1 [Example 14, 4-{4-[(4′-chloro-1,1′-biphenyl-2-yl)methyl]piperazin-1-yl}-N-(morpholin-4-ylsulfonyl)benzamide]",409
5,"Cc1nc(C)c(S(=O)(=O)NC(=O)c2ccc(N3CCN(Cc4ccccc4-c4ccc(Cl)cc4)CC3)cc2)s1 [Example 15, 4-{4-[(4′-chloro-1,1′-biphenyl-2-yl)methyl]piperazin-1-yl}-N-[(2,4-dimethyl-1,3-thiazol-5-yl)sulfonyl]benzamide]",282
6,"O=C(NS(=O)(=O)c1csc(C(F)(F)F)c1-c1ccccc1)c1ccc(N2CCN(Cc3ccccc3-c3ccc(Cl)cc3)CC2)cc1 [Example 16, 4-{4-[(4′-chloro-1,1′-biphenyl-2-yl)methyl]piperazin-1-yl}-N-{[4-phenyl-5-(trifluoromethyl)thien-3-yl]sulfonyl}benzamide]",37.9
7,"Cc1c(S(=O)(=O)NC(=O)c2ccc(N3CCN(Cc4ccccc4-c4ccc(Cl)cc4)CC3)cc2)sc2ccc(F)cc12 [Example 17, 4-{4-[(4′-chloro-1,1′-biphenyl-2-yl)methyl]piperazin-1-yl}-N-[(5-fluoro-3-methyl-1-benzothien-2-yl)sulfonyl]benzamide]",356
8,"O=C(NS(=O)(=O)c1nc2ccccc2s1)c1ccc(N2CCN(Cc3ccccc3-c3ccc(Cl)cc3)CC2)cc1 [Example 18, N-(1,3-benzothiazol-2-ylsulfonyl)-4-{4-[(4′-chloro-1,1′-biphenyl-2-yl)methyl]piperazin-1-yl}benzamide]",129
9,"O=C(NS(=O)(=O)c1cccs1)c1ccc(N2CCN(Cc3ccccc3-c3ccc(Cl)cc3)CC2)cc1 [Example 19, 4-{4-[(4′-chloro-1,1′-biphenyl-2-yl)methyl]piperazin-1-yl}-N-(thien-2-ylsulfonyl)benz amide]",234
10,"Cc1cc(C)n2nc(S(=O)(=O)NC(=O)c3ccc(N4CCN(Cc5ccccc5-c5ccc(Cl)cc5)CC4)cc3)nc2n1 [Example 20, 4-{4-[(4′-chloro-1,1′-biphenyl-2-yl)methyl]piperazin-1-yl}-N-[(5,7-dimethyl[1,2,4]triazolo[1,5-a]pyrimidin-2-yl)sulfonyl]benzamide]",48.1
11,"COC(=O)c1ccc(S(=O)(=O)NC(=O)c2ccc(N3CCN(Cc4ccccc4-c4ccc(Cl)cc4)CC3)cc2)n1C [Example 22, methyl 5-{[(4-{4-[(4′-chloro-1,1′-biphenyl-2-yl)methyl]piperazin-1-yl}benzoyl)amino]sulfonyl}-1-methyl-1H-pyrrole-2-carboxylate]",188
12,"Cc1cc(-c2oncc2S(=O)(=O)NC(=O)c2ccc(N3CCN(Cc4ccccc4-c4ccc(Cl)cc4)CC3)cc2)n(C)n1 [Example 23, 4-{4-[(4′-chloro-1,1′-biphenyl-2-yl)methyl]piperazin-1-yl}-N-{[5-(1,3-dimethyl-1H-pyrazol-5-yl)isoxazol-4-yl]sulfonyl}benzamide]",447
13,"Cc1nsc(S(=O)(=O)NC(=O)c2ccc(N3CCN(Cc4ccccc4-c4ccc(Cl)cc4)CC3)cc2)c1Cl [Example 24, 4-{4-[(4′-chloro-1,1′-biphenyl-2-yl)methyl]piperazin-1-yl}-N-[(4-chloro-3-methylisothiazol-5-yl)sulfonyl]benzamide]",342
14,"Cc1c(S(=O)(=O)NC(=O)c2ccc(N3CCN(Cc4ccccc4-c4ccc(Cl)cc4)CC3)cc2)sc2ccc(Br)cc12 [Example 25, N-[(5-bromo-3-methyl-1-benzothien-2-yl)sulfonyl]-4-{4-[(4′-chloro-1,1′-biphenyl-2-yl)methyl]piperazin-1-yl}benzamide]",372
15,"O=C(NS(=O)(=O)c1ccc(/C=C/c2ncon2)s1)c1ccc(N2CCN(Cc3ccccc3-c3ccc(Cl)cc3)CC2)cc1 [Example 26, 4-{4-[(4′-chloro-1,1′-biphenyl-2-yl)methyl]piperazin-1-yl}-N-({5-[(E)-2-(1,2,4-oxadiazol-3-yl)vinyl]thien-2-yl}sulfonyl)benzamide]",393
16,"Cc1nn(CCCl)c(C)c1S(=O)(=O)NC(=O)c1ccc(N2CCN(Cc3ccccc3-c3ccc(Cl)cc3)CC2)cc1 [Example 27, 4-{4-[(4′-chloro-1,1′-biphenyl-2-yl)methyl]piperazin-1-yl}-N-{[1-(2-chloroethyl)-3,5-dimethyl-1H-pyrazol-4-yl]sulfonyl}benzamide]",434
17,"CCC(CC)NC(=O)c1nnc(S(=O)(=O)NC(=O)c2ccc(N3CCN(Cc4ccccc4-c4ccc(Cl)cc4)CC3)cc2)s1 [Example 28, 5-{[(4-{4-[(4′-chloro-1,1′-biphenyl-2-yl)methyl]piperazin-1-yl}benzoyl)amino]sulfonyl}-N-(1-ethylpropyl)-1,3,4-thiadiazole-2-carboxamide]",417
18,"Cc1nn(C)c(Cl)c1S(=O)(=O)NC(=O)c1ccc(N2CCN(Cc3ccccc3-c3ccc(Cl)cc3)CC2)cc1 [Example 29, 4-{4-[(4′-chloro-1,1′-biphenyl-2-yl)methyl]piperazin-1-yl}-N-[(5-chloro-1,3-dimethyl-1H-pyrazol-4-yl)sulfonyl]benzamide]",340
19,"O=C(NS(=O)(=O)c1cc([N+](=O)[O-])c(N2CCCCC2)s1)c1ccc(N2CCN(Cc3ccccc3-c3ccc(Cl)cc3)CC2)cc1 [Example 30, 4-{4-[(4′-chloro-1,1′-biphenyl-2-yl)methyl]piperazin-1-yl}-N-[(4-nitro-5-piperidin-1-ylthien-2-yl)sulfonyl]benzamide]",269
20,"O=C(NS(=O)(=O)c1ccc(-c2ccno2)o1)c1ccc(N2CCN(Cc3ccccc3-c3ccc(Cl)cc3)CC2)cc1 [Example 31, 4-{4-[(4′-chloro-1,1′-biphenyl-2-yl)methyl]piperazin-1-yl}-N-[(5-isoxazol-5-yl-2-furyl)sulfonyl]benzamide]",139
21,"Cc1noc(C)c1S(=O)(=O)NC(=O)c1ccc(N2CCN(Cc3ccccc3-c3ccc(Cl)cc3)CC2)cc1 [Example 32, 4-{4-[(4′-chloro-1,1′-biphenyl-2-yl)methyl]piperazin-1-yl}-N-[(3,5-dimethylisoxazol-4-yl)sulfonyl]benzamide]",438
22,"CC1(C)CCC(CN2CCN(c3ccc(C(=O)NS(=O)(=O)c4cc([N+](=O)[O-])c(NCCCN5CCCC5)s4)c(Oc4ccc5[nH]ccc5c4)c3)CC2)=C(c2ccc(Cl)cc2)C1 [Example 33, 4-(4-{[2-(4-chlorophenyl)-4,4-dimethylcyclohex-1-en-1-yl]methyl}piperazin-1-yl)-2-(1H-indol-5-yloxy)-N-({4-nitro-5-[(3-pyrrolidin-1-ylpropyl)amino]thien-2-yl}sulfonyl)benzamide]",0.649
23,"CN(C)CCCNc1sc(S(=O)(=O)NC(=O)c2ccc(N3CCN(CC4=C(c5ccc(Cl)cc5)CC(C)(C)CC4)CC3)cc2Oc2ccc3[nH]ccc3c2)cc1[N+](=O)[O-] [Example 34, 4-(4-{[2-(4-chlorophenyl)-4,4-dimethylcyclohex-1-en-1-yl]methyl}piperazin-1-yl)-N-[(5-{[3-(dimethylamino)propyl]amino}-4-nitrothien-2-yl)sulfonyl]-2-(1H-indol-5-yloxy)benzamide]",1.79
24,"CC1(C)CCC(CN2CCN(c3ccc(C(=O)NS(=O)(=O)c4cc([N+](=O)[O-])c(NCCCN5CCOCC5)s4)c(Oc4ccc5[nH]ccc5c4)c3)CC2)=C(c2ccc(Cl)cc2)C1 [Example 35, 4-(4-{[2-(4-chlorophenyl)-4,4-dimethylcyclohex-1-en-1-yl]methyl}piperazin-1-yl)-2-(1H-indol-5-yloxy)-N-({5-[(3-morpholin-4-ylpropyl)amino]-4-nitrothien-2-yl}sulfonyl)benzamide]",2.07
25,"CN(C)CC[C@H](CSc1ccccc1)Nc1sc(S(=O)(=O)NC(=O)c2ccc(N3CCC(=Cc4ccccc4C(F)(F)F)CC3)cc2)cc1[N+](=O)[O-] [Example 36, N-{[5-({(1R)-3-(dimethylamino)-1-[(phenylthio)methyl]propyl}amino)-4-nitrothien-2-yl]sulfonyl}-4-{4-[2-(trifluoromethyl)benzylidene]piperidin-1-yl}benzamide]",294
